ChEMBL document CHEMBL1134617 (J Med Chem, 2001)

Key:
[1] = target: T1, 5-hydroxytryptamine receptor 2C (Rattus norvegicus, UniProt P08909); assay: Binding affinity against rat 5-hydroxytryptamine 2C receptor using [3H]mesulergine as radioligand
T1 sequence (P08909 whole entry): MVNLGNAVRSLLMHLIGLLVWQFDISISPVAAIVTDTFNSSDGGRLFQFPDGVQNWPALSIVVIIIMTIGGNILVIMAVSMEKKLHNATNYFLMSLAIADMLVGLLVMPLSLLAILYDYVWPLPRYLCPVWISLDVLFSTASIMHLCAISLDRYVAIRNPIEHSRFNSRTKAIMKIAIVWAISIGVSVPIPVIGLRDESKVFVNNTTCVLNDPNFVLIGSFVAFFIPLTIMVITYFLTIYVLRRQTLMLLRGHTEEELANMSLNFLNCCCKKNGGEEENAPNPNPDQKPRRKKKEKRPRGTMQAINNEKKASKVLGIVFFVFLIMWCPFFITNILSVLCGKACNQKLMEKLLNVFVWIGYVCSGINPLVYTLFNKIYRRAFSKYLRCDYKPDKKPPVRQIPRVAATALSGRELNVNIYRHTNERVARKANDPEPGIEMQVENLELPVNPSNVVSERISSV

[2] = target: T2, 5-hydroxytryptamine receptor 2A (Rattus norvegicus, UniProt P14842); assay: Binding affinity against rat 5-hydroxytryptamine 2A receptor using [3H]ketanserin as radioligand
[3] = target: Serotonin receptor 2a and 2c (5HT2A and 5HT2C) (Rattus norvegicus) (UniProt P08909+P14842); assay: Ratio of binding affinity towards rat 5-HT2C and 5-HT2A receptors; format: protein assay
[4] = target: T2, 5-hydroxytryptamine receptor 2A; assay: Binding affinity against rat 5-hydroxytryptamine 2A receptor using [3H]DOB as radioligand

Serotonin receptor 2a and 2c (5HT2A and 5HT2C) (Rattus norvegicus), sequence (P14842 whole entry, looked up, one chain of several): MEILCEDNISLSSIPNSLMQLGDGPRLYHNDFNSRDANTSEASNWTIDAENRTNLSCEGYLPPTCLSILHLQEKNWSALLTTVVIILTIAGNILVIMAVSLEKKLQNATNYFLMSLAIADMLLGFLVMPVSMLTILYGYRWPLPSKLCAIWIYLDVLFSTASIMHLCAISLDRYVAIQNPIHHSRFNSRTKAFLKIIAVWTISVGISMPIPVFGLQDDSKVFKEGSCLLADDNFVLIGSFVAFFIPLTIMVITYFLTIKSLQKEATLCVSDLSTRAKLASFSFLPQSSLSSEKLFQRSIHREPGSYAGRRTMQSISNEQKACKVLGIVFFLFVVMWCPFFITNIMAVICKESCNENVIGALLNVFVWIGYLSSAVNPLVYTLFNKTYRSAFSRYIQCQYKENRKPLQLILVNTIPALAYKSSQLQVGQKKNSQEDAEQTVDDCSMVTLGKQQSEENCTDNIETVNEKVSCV
T2 sequence (P14842 whole entry): as the sequence (P14842 whole entry, looked up, one chain of several) above

Row | Structure (SMILES) | Ki [1] | Ki [2] | Ratio [3] | Ki [4]
1 | COc1ccc(CCc2ccccc2)cc1CCN | 0.435 µM | 0.24 µM | 2 | 
2 | COc1ccc(CCCC2CCCCC2)cc1CCN | 0.198 µM | 0.38 µM | < 1 | 0.76 µM
3 | COc1ccc(OCc2ccccc2)cc1CCN | 0.41 µM | 0.345 µM | 1 | 0.255 µM
4 | COc1ccc(CCCc2ccccc2)cc1CCN | 0.22 µM | 0.02 µM | 11 | 0.03 µM
5 | COc1ccccc1CCN | > 10 µM | > 10 µM |  | > 10 µM
6 | COc1cc(OCCc2ccccc2)ccc1CCN | 0.81 µM | 0.172 µM | 5 | 0.11 µM
7 | COc1cc(CCc2ccccc2)ccc1CCN | 0.17 µM | 0.046 µM | 4 | 
8 | COc1ccc(I)cc1CCN | 1.64 µM | 0.7 µM | 2 | 0.211 µM
9 | COc1ccc(-c2ccccc2)cc1CCN | 2.87 µM | 3.46 µM | 1 | 1.52 µM
10 | COc1ccc(C#CCCCc2ccccc2)cc1CCN | 0.205 µM | 0.295 µM | < 1 | 
11 | COc1cc(-c2ccccc2)ccc1CCN | 1.52 µM | 6.72 µM | < 1 | 4.9 µM
12 | COc1cc(Cc2ccccc2)ccc1CCN | 0.093 µM | 0.023 µM | 4 | 
13 | COc1cc(CCCCCc2ccccc2)ccc1CCN | 0.019 µM | 0.072 µM | < 1 | 0.018 µM
14 | COc1ccc(OCCc2ccc(Br)cc2)cc1CCN | 0.115 µM | 0.091 µM | 1 | 0.035 µM
15 | COc1cc(C#CCCCc2ccccc2)ccc1CCN | 0.07 µM | 0.295 µM | < 1 | 0.24 µM
16 | COc1ccc(CCCCc2ccccc2)cc1CCN | 0.071 µM | 0.089 µM | 1 | 0.067 µM
17 | COc1ccc(OCCc2ccccc2)cc1CCN | 1.79 µM | 0.6 µM | 3 | 0.44 µM
18 | COc1ccc(O)cc1CCN | 4.86 µM | 5.96 µM | 1 | 1.33 µM
19 | COc1ccc(CCCCCc2ccccc2)cc1CCN | 0.15 µM | 0.11 µM | 1 | 
20 | COc1cc(CCCc2ccccc2)ccc1CCN | 0.295 µM | 0.018 µM | 16 | 0.012 µM
21 | COc1ccc(Cc2ccccc2)cc1CCN | 0.23 µM | 0.176 µM | 1 | 
22 | COc1ccc(Br)cc1CCN | 0.96 µM | 1 µM | 1 | 0.208 µM
23 | COc1cc(CCCc2ccccc2)ccc1CC(C)N (configuration not stated) |  |  | 11 | 
24 | COc1cc(CCCCc2ccccc2)ccc1CCN | 0.068 µM | 0.059 µM | 1 | 0.042 µM
25 | COc1ccc(OC)c(CCN)c1 | 6.4 µM | 2.82 µM | 2 | 
26 | COc1cc(CCCC2CCCCC2)ccc1CCN | 0.116 µM | 0.438 µM | < 1 | 0.25 µM
27 | COc1ccc(CCCc2ccccc2)cc1CC(C)N (configuration not stated) | 0.11 µM | 0.013 µM | 8 | 0.019 µM
